Experimental data from ChEMBL document CHEMBL5537149, “Design, synthesis, and lead optimization of piperazinyl-pyrimidine analogues as potent small molecules targeting the viral capping machinery of Chikungunya virus” (Eur J Med Chem, 2024).
Converted amounts (≈) assume the structure as drawn.

What was measured:
[1] = Aqueous solubility of compound at pH 7.4 by HPLC analysis; assay type: physicochemical
Chikungunya virus = experiment: Antiviral activity against Chikungunya virus infected in African green monkey Vero cells assessed as reduction in viral induced cell death incubated for 5 days by MTS reagent based absorbance method; assay type: functional, organism-based; details: 120 h
[2] = Selectivity index, ratio of CC50 for cytotoxicity against African green monkey Vero cells to EC50 for antiviral activity against Chikungunya virus infected in African green monkey Vero cells assessed as reduction in viral induced cell death; assay type: toxicity, cell-based; details: read-out: Ratio CC50/EC50
[3] = Cytotoxicity against African green monkey Vero cells assessed as reduction in overall metabolic activity incubated for 5 days by MTS reagent based absorbance method; assay type: toxicity, cell-based; details: chlorocebus sabaeus, time 5 day
[4] = Metabolic stability in human liver microsomes assessed as half-life preincubated for 5 mins followed by NADPH addition and measured upto 60 mins by HPLC-MS/MS analysis; assay type: ADME, Microsome; details: time < 65 min

Row | Compound | solubility [1] | EC50 (Chikungunya virus) | selectivity ratio [2] | CC50 at 120 h [3] | half-life [4]
1 | O=C(c1ccc(Cl)cc1)N1CCN(c2ncnc3[nH]cnc23)CC1 | 114 µM (≈ 39.1 µg/mL) | 94 µM | – | – | –
2 | Cc1nc(N2CCN(C(=O)c3cc(Cl)cc(Cl)c3)CC2)c2nc[nH]c2n1 | 92 µM (≈ 36 µg/mL) | > 100 µM | – | – | –
3 | O=C(c1cc(Cl)cc(Cl)c1)N1CCN(c2nc(C(F)(F)F)nc3[nH]cnc23)CC1 | 73 µM (≈ 32.5 µg/mL) | 77 µM | – | – | –
4 | CCNc1cc(C)nc(N2CCN(C(=O)c3cc(Cl)cc(Cl)c3)CC2)n1 | 11 µM (≈ 4.34 µg/mL) | 67 µM | > 1.5 | > 100 µM | –
5 | CCNc1cc(C)nc(NC2CN(C(=O)c3cc(Cl)cc(Cl)c3)C2)n1 | 93 µM (≈ 35.4 µg/mL) | > 100 µM | – | – | –
6 | CCNc1cc(C)nc(N2CCN(S(=O)(=O)c3ccc(Cl)nc3)CC2)n1 | 115 µM (≈ 45.6 µg/mL) | 121 µM | 0.8 | 97 µM | –
7 | Cc1cc(N2CCN(C(=O)c3cccc(Br)c3)CC2)nc(N(C)C)n1 | – | 100 µM | > 1 | > 100 µM | –
8 | CCNc1nc(C)cc(N2CCC3(CCN(C(=O)c4cc(Cl)cc(Cl)c4)C3)C2)n1 (centres undefined) | 98 µM (≈ 42.6 µg/mL) | 11 µM | – | – | > 1 h
9 | O=C(c1ccc(Cl)cc1)N1CCN(c2nc(C(F)(F)F)nc3[nH]cnc23)CC1 | 36 µM (≈ 14.8 µg/mL) | 26 µM | – | – | –
10 | O=C(c1ccc(Cl)c(Cl)c1)N1CCN(c2nc(C(F)(F)F)nc3[nH]cnc23)CC1 | 71 µM (≈ 31.6 µg/mL) | 9.5 µM | – | – | > 1 h
11 | CCNc1nc(C)cc(N2CCC3(CC2)CC(=O)c2ccccc2O3)n1 | 98 µM (≈ 34.5 µg/mL) | 4.2 µM | – | – | > 1 h
12 | CCNc1nc(N2CCN(C(=O)c3ccc(Cl)c(Cl)c3)CC2)cc(C(F)(F)F)n1 | – | > 100 µM | – | > 100 µM | –
13 | CCNc1cc(C)nc(N2CCN(S(=O)(=O)c3cccs3)CC2)n1 | 68 µM (≈ 25 µg/mL) | 103 µM | 1.8 | 180 µM | –
14 | CCNc1cc(C)nc(N2CCC3(CCN(C(=O)c4cc(Cl)cc(Cl)c4)C3)C2)n1 (centres undefined) | 108 µM (≈ 46.9 µg/mL) | 28 µM | – | – | –
15 | CCNc1cc(C)nc(N2CCC3(CC2)CC(=O)c2ccccc2O3)n1 | 100 µM (≈ 35.2 µg/mL) | 23 µM | – | – | –
16 | CCNc1nc(C)cc(N2CC(NC(=O)c3cc(Cl)cc(Cl)c3)C2)n1 | 81 µM (≈ 30.8 µg/mL) | > 100 µM | – | – | –
17 | CCNc1cc(N2CCN(S(=O)(=O)c3ccc(F)cc3)CC2)ncn1 | 94 µM (≈ 34.4 µg/mL) | > 274 µM | – | – | –
18 | CCNc1nc(C)cc(N2CCN(C(=O)c3ccc(C)cc3C)CC2)n1 | – | > 100 µM | > 1 | > 100 µM | –
19 | Nc1nc(N2CCN(C(=O)c3ccc(Cl)cc3)CC2)c2nc[nH]c2n1 | 116 µM (≈ 41.5 µg/mL) | > 100 µM | – | – | –
20 | CCNc1cc(C)nc(N2CCC(NC(=O)c3cc(Cl)cc(Cl)c3)CC2)n1 | 52 µM (≈ 21.2 µg/mL) | > 100 µM | < 0.48 | 48 µM | –
21 | CCNc1cc(C)nc(N2CC3CCC(C2)N3C(=O)c2cc(Cl)cc(Cl)c2)n1 | 97 µM (≈ 40.8 µg/mL) | > 100 µM | – | – | –
22 | CCNc1cc(C)nc(N2CC3CN(C(=O)c4cc(Cl)cc(Cl)c4)CC3C2)n1 (centres undefined) | 108 µM (≈ 45.4 µg/mL) | 23 µM | – | – | –
23 | Cc1nc(Cl)c(N)c(N2CCN(C(=O)c3cc(Cl)cc(Cl)c3)CC2)n1 | 94 µM (≈ 37.7 µg/mL) | 32 µM | – | – | –
24 | O=C(c1cc(Cl)cc(Cl)c1)N1CCN(c2nc(Cl)nc3[nH]cnc23)CC1 | 66 µM (≈ 27.2 µg/mL) | 18 µM | – | – | > 1 h
25 | CCNc1nc(C)cc(NC2CN(C(=O)c3cc(Cl)cc(Cl)c3)C2)n1 | 104 µM (≈ 39.5 µg/mL) | 8.5 µM | – | – | 0.617 h

Row | Compound | solubility [1] | EC50 (Chikungunya virus) | selectivity ratio [2] | CC50 at 120 h [3] | half-life [4]
26 | O=C(c1ccc(Cl)c(Cl)c1)N1CCN(c2ncnc3[nH]cnc23)CC1 | 104 µM (≈ 39.2 µg/mL) | 66 µM | – | – | –
27 | Cc1nc(N2CCN(C(=O)c3ccc(Cl)cc3)CC2)c2nc[nH]c2n1 | 84 µM (≈ 30 µg/mL) | 97 µM | – | – | –
28 | CCNc1cc(C)nc(N2CC3CCC(C2)N3C(=O)c2ccc(Cl)cc2)n1 | – | 79 µM | > 1.11 | > 88 µM | –
29 | CCNc1nc(C)cc(N2CC3CN(C(=O)c4cc(Cl)cc(Cl)c4)CC3C2)n1 (centres undefined) | 109 µM (≈ 45.8 µg/mL) | 19 µM | – | – | > 1 h
30 | CCNc1nccc(N2CCN(C(=O)c3ccc(F)cc3)CC2)n1 | > 120 µM | 216 µM | > 1.4 | > 304 µM | –
31 | CCNc1nc(N2CCN(C(=O)c3ccc(Br)cc3)CC2)cc(C(F)(F)F)n1 | 33 µM (≈ 15.1 µg/mL) | > 100 µM | – | > 100 µM | –
32 | CCNc1nc(C)cc(N2CC3CCC(C2)N3C(=O)c2ccc(Cl)cc2)n1 | – | 17 µM | 5 | 84 µM | –
33 | CCNc1nc(C)cc(N2CC3CCC(C2)N3C(=O)c2cc(Cl)cc(Cl)c2)n1 | 111 µM (≈ 46.7 µg/mL) | 14 µM | – | – | > 1 h
34 | CCNc1cc(C)nc(N2CCC3(CCN(C(=O)c4ccc(Cl)cc4)C3)C2)n1 (centres undefined) | – | 32 µM | 2.3 | 74 µM | –
35 | O=C(c1cc(Cl)cc(Cl)c1)N1CCN(c2ncnc3[nH]cnc23)CC1 | 112 µM (≈ 42.3 µg/mL) | 32 µM | – | – | –
36 | Nc1nc(N2CCN(C(=O)c3ccc(Cl)c(Cl)c3)CC2)c2nc[nH]c2n1 | 106 µM (≈ 41.6 µg/mL) | > 100 µM | – | – | –
37 | Cc1cc(N2CCN(S(=O)(=O)c3ccc(F)cc3)CC2)nc(N2CCCC2)n1 | > 120 µM | 25 µM | 1.9 | 47 µM | –
38 | CCNc1cc(C(F)(F)F)nc(N2CCN(C(=O)c3cccc(Br)c3)CC2)n1 | 0.8 µM (≈ 0.367 µg/mL) | 41 µM | – | – | 0.283 h
39 | CCNc1nc(C)cc(N2CC3CN(C(=O)c4ccc(Cl)cc4)CC3C2)n1 (centres undefined) | – | 3.2 µM | 23 | 72 µM | –
40 | Cc1cc(N(C)C)nc(N2CCN(C(=O)c3cc(Cl)cc(Cl)c3)CC2)n1 | 95 µM (≈ 37.5 µg/mL) | > 100 µM | – | > 100 µM | –
41 | Cc1nc(Cl)c(N)c(N2CCN(C(=O)c3ccc(Cl)cc3)CC2)n1 | – | > 88 µM | > 1 | > 88 µM | –
42 | CCNc1cc(C)nc(N2CCCC(NC(=O)c3cc(Cl)cc(Cl)c3)C2)n1 (centres undefined) | 31 µM (≈ 12.7 µg/mL) | > 25 µM | < 1.95 | 49 µM | –
43 | CCNc1nc(C)cc(N2CCN(C(=O)c3ccc(F)cc3F)CC2)n1 | – | > 100 µM | > 1 | > 100 µM | –
44 | CCNc1cc(C)nc(N2CC3CN(C(=O)c4ccc(Cl)cc4)CC3C2)n1 (centres undefined) | – | 12 µM | > 7.5 | > 88 µM | –
45 | Nc1nc(N2CCN(C(=O)c3cc(Cl)cc(Cl)c3)CC2)c2nc[nH]c2n1 | 47 µM (≈ 18.4 µg/mL) | > 100 µM | – | – | –
46 | CCNc1nc(C)cc(N2CCC3(CCN(C(=O)c4ccc(Cl)cc4)C3)C2)n1 (centres undefined) | – | 18 µM | 2.5 | 45 µM | –
47 | CCNc1nc(C)cc(N2CCC(NC(=O)c3cc(Cl)cc(Cl)c3)CC2)n1 | 100 µM (≈ 40.8 µg/mL) | > 25 µM | – | > 100 µM | –
48 | CCNc1cc(C)nc(N2CC(NC(=O)c3cc(Cl)cc(Cl)c3)C2)n1 | 47 µM (≈ 17.9 µg/mL) | > 88 µM | – | – | –
49 | CCNc1cc(C)nc(N2CCN(C(=O)C3CCCCC3)CC2)n1 | 119 µM (≈ 39.4 µg/mL) | 70 µM | 2.1 | 147 µM | –
50 | CCNc1nc(C)cc(N2CCN(C(=O)c3ccc(Cl)cc3Cl)CC2)n1 | > 120 µM | > 100 µM | < 0.47 | 47 µM | –
